“Also recorded” adds a separate entry of the source. Marks after values point to notes of the source that are not given here.
Assays:
isolated portal veins = test: Contractile tension of isolated portal veins; set-up: species or system Male Wistar rats; conditions: for Effect of antagonist on 5-HT induced contraction of isolated portal vein: pre-incubation with antagonist for 20 minutes before 5-HT; for Effect of antagonist on 8-OH-DPAT induced contraction of isolated portal vein: pre-incubation with antagonist for 20 minutes before 8-OH-DPAT; for Effect of antagonist on F11440 induced contraction of isolated portal vein: pre-incubation with antagonist for 20 minutes before F11440; for Effect of agonist on contractile tension of isolated portal vein: cumulative concentrations, 3 minutes each, agonist alone
Excerpt: Effects of the selective agonist and antagonist of HTR1A on contractile tension of isolated portal vein.
1) Male Wistar rats, weighting 140 g to 160 g, were anesthetized with inhalational isopentane through a mask. The portal veins were gently isolated from the animals and 3-5 mm of the vessel was removed under the anatomical microscope from the connective tissue, and then the vessel was placed in a cold Tyrode solution (NaCl: 148.9, KCl: 2.7, CaCl2: 1.8, NaPO4H2: 0.2, NaCO3H: 11.9, MgCl2: 1.2, glucose: 5.5 mM). Isolated portal veins were mounted in 20 ml jacketed tissue baths containing the appropriate Tyrode solution (37±0.5° C., PH=7.4) constantly bubbled with O2, by suspending them between two L-shaped stainless-steel hooks. The lower hooks were fixed and the upper hooks were attached to force-displacement transducers. Isometric force was measured and recorded using the ALC-MPA software associated with the equipment.
2) A pre-load of 1 g was applied. After mounting, isolated portal veins were equilibrated for […]. The contractile response to depolarizing potassium solution was then assessed as a test for viability. The depolarizing KCl solution (80 mM) had the same composition as the Tyrode solution used, except for the NaCl that had been completely replaced by an equimolar amount of KCl. The iPVs were washed with Tyrode solution four times and re-equilibrated for another […].
3) To evaluate the effects of 5-HT or HTR1A agonist on the contraction of iPVs, serotonin or selective agonist of HTR1A (8-OH-DPAT and F11440) was directly administrated into the tissue baths for 3 minutes in cumulatively concentrations, and the magnitude of contractile tension was recorded. To evaluate the effects of HTR1A antagonist, a pre-incubation with selective antagonist of HTR1A (WAY 100635 and NAD 299) for 20 minutes was used before increasing administration of 5-HT or HTR1A agonist.
4) 5-HT, selective agonist of HTR1A (8-OH-DPAT and F11440), and selective antagonist of HTR1A (WAY 100635 and NAD 299) were purchased from Sigma, Selleck, Tocris, and TargetMol, respectively.

[1] = tested on: cirrhotic portal hypertensive rats induced by carbon tetrachloride (CCl4); test: Portal pressure in cirrhotic portal hypertensive rats induced by carbon tetrachloride (CCl4), antagonists (Example 2); assay type: in vivo, Male Wistar rats; conditions: CCl4 model; for Effect on portal pressure / Portal pressure: WAY 100635 1 mg/kg i.p.; for Effect on portal pressure: alverine 15 mg/kg by gavage, once per day; for Portal pressure: alverine 15 mg/kg p.o., means ±SEM; for Portal pressure / Effect on portal pressure compared with carvedilol: carvedilol 10 mg/kg p.o.; for Portal pressure / Change of portal pressure vs. Vehicle: once per day for one week; for Change of portal pressure vs. Vehicle: same dosing
Excerpt: 1) Self-made portal pressure measuring kit, which contains 24-Gauge scalp vein set (Y type) and catheter, and high-sensitive pressure sensor, biological signal processing system (SMUP-U, Jide experimental teaching equipment factory, Shanghai, China) were used to measure the portal pressure in rats. 2) Connect all the catheters and device, check the tightness and set zero, then open the portal pressure measuring kit, connect the catheter with the scalp vein set and high-sensitive pressure sensor, following the connection between pressure sensor and biological signal processing system. Fill all the catheters with heparin sodium saline (volume of heparin sodium and saline: 1.25 WU: 500 ml), eliminate the air bubbles and close the catheter. Then remove the needle in the scalp vein set, place it horizontally at the portal vein height of the rat (supine position). The zero point was set after opening the catheter in the biological collection system software. 3) Rats were anesthetized with inhalational isopentane through a mask. A midline abdominal incision was made, and the portal vein was cannulated with a 24-Gauge scalp vein set, connecting with a catheter filled heparin-saline, to measure PP. Effects of the selective antagonist of HTR1A WAY 100635, and alverine on portal pressure (PP) in cirrhotic portal hypertensive rats induced by carbon tetrachloride (CCl4). 1) Thirty-one male Wistar rats, weighting 140 g to 160 g, were randomly divided into normal control group (N=7) and CCl4 group (N=24). Rats in CCl4 group were subjected to intraperitoneally (i.p.) injections of CCl4 at 0.25 ml/kg (diluted 1:3 v/v in olive oil) twice per week for 12 weeks to induce cirrhotic portal hypertension, while the normal controls received injections of olive oil at the same timepoint. At the beginning of the eleventh week, rats in CCl4 group were randomly divided into four groups: Vehicle group (N=7), Alverine group (N=6), WAY 100635 group (N=5), and carvedilol group (N=6). 2) Alverine was diluted in sterile normal saline at a concentration of 5 mg/ml and delivered to the rats in Alverine group via gavage (p.o.). WAY 100635 was diluted in sterile normal saline at a concentration of 1 mg/ml and peritoneally injected (i.p.) into the rats in WAY 100635 group. Carvedilol was diluted in sterile normal saline at a concentration of 1 mg/ml and delivered to the rats in carvedilol group via gavage. 3) Rats in the Alverine group, WAY 100635 group, and carvedilol group were received alverine 15 mg/kg p.o.+saline i.p., saline p.o.+WAY 100635 1 mg/kg i.p., carvedilol 10 mg/kg p.o.+saline i.p., respectively once per day for one week, while rats in vehicle group received saline p.o. and saline i.p. at the same timepoint. 4) After one-week treatment, portal pressure of all the rats were measured and rats were sacrificed for liver tissues. Similar as that in embodiment example 1.

[2] = tested on: cirrhotic portal hypertensive rats induced by thioacetamide (TAA); test: Portal pressure in cirrhotic portal hypertensive rats induced by thioacetamide (TAA); assay type: in vivo, Male Wistar rats; conditions: TAA model; for Effect on portal pressure / Portal pressure: WAY 100635 1 mg/kg i.p.; for Effect on portal pressure: alverine 15 mg/kg by gavage, once per day; for Portal pressure: alverine 15 mg/kg p.o., means ±SEM; for Portal pressure / Effect on portal pressure compared with carvedilol: carvedilol 10 mg/kg p.o.; for Portal pressure / Change of portal pressure vs. Vehicle: once per day for one week; for Change of portal pressure vs. Vehicle: same dosing
Experimental: Effects of the selective antagonist of HTR1A WAY 100635, and alverine on portal pressure (PP) in cirrhotic portal hypertensive rats induced by thioacetamide (TAA).
Male Wistar rats, weighting about 140 to 160 grams (g) each, were purchased from SLAC Laboratory Animal Co., Ltd (Shanghai, China) and housed under standard animal laboratory conditions in the experimental animal center of Second Military Medical University (Shanghai, China). All animal experiments in this study were performed in accordance with protocols approved by the local Ethical Committee of the Second Military Medical University.
1) Thirty-five male Wistar rats, weighting 140 g to 160 g, were randomly divided into normal control group (N=8) and TAA group (N=27). Rats in TAA group were subjected to intraperitoneally (i.p.) injections of TAA (purchase from […]) at 200 mg/kg, which is diluted in sterile normal saline (NS; 0.9% sodium chloride), 3 times per week for 16 weeks to induce cirrhotic portal hypertension. The normal controls received injections of NS at the same timepoint. At the beginning of the 17th week, rats in TAA group were randomly divided into four groups: Vehicle group (N=7), Alverine group (N=7), WAY 100635 group (N=7), and carvedilol group (N=6).
2) Alverine (purchase from TargetMol) was diluted in the saline at a concentration of 5 mg/ml and delivered to the rats in Alverine group via gavage (p.o.). WAY 100635 (purchase from Selleck) was diluted in sterile normal saline at a concentration of 1 mg/ml and peritoneally injected (i.p.) into the rats in WAY 100635 group. Carvedilol (purchase from TargetMol) was diluted in sterile normal saline at a concentration of 1 mg/ml and delivered to the rats in carvedilol group via gavage.
3) Rats in the Alverine group, WAY 100635 group, and carvedilol group were received alverine 15 mg/kg p.o.+saline i.p., saline p.o.+WAY 100635 1 mg/kg i.p., carvedilol 10 mg/kg p.o.+saline i.p., respectively once per day for one week, while rats in vehicle group received saline p.o. and saline i.p. at the same timepoint.
4) After one-week treatment, portal pressure of all the rats were measured and rats were sacrificed for liver tissues.
(§1) 1) Self-made portal pressure measuring kit, which contains 24-Gauge scalp vein set (Y type) and catheter, and high-sensitive pressure sensor, biological signal processing system (SMUP-U, Jide experimental teaching equipment factory, Shanghai, China) were used to measure the portal pressure in rats.
(§2) 2) Connect all the catheters and device, check the tightness and set zero, then open the portal pressure measuring kit, connect the catheter with the scalp vein set and high-sensitive pressure sensor, following the connection between pressure sensor and biological signal processing system. Fill all the catheters with heparin sodium saline (volume of heparin sodium and saline: 1.25 WU: 500 ml), eliminate the air bubbles and close the catheter. Then remove the needle in the scalp vein set, place it horizontally at the portal vein height of the rat (supine position). The zero point was set after opening the catheter in the biological collection system software.
3) Rats were anesthetized with inhalational isopentane through a mask. A midline abdominal incision was made, and the portal vein was cannulated with a 24-Gauge scalp vein set, connecting with a catheter filled heparin-saline, to measure PP.
Data were presented as the means ±SEM. One-way analysis of variance (ANOVA) and student's t-tests were performed to compare data between two groups, and a P value of less than 0.05 was considered statistically significant.

[3] = tested on: cirrhotic portal hypertensive rats induced by carbon tetrachloride (CCl4); test: Portal pressure in cirrhotic portal hypertensive rats induced by CCl4, agonist 8-OH-DPAT (Example 3); assay type: in vivo, Male Wistar rats; conditions: CCl4 model
Excerpt: as §1, §2
3) Rats were anesthetized with inhalational isopentane through a mask. A midline abdominal incision was made, and the portal vein was cannulated with a 24-Gauge scalp vein set, connecting with a catheter filled heparin-saline, to measure PP. […]
4) After one-week treatment, portal pressure of all the rats were measured and rats were sacrificed for liver tissues. […]

SMILES: NC(=O)c1ccc(F)c2c1C[C@@H](N(C1CCC1)C1CCC1)CO2 [NAD 299]
- Effect of antagonist on 5-HT induced contraction of isolated portal vein (isolated portal veins): abrogated
- Effect of antagonist on 8-OH-DPAT induced contraction of isolated portal vein (isolated portal veins): almost completely inhibited
- Effect of antagonist on F11440 induced contraction of isolated portal vein (isolated portal veins): almost completely inhibited

SMILES: COc1ccccc1N1CCN(CCN(C(=O)C2CCCCC2)c2ccccn2)CC1 [WAY 100635]
- Effect on portal pressure [1]: significantly decrease
- Portal pressure [1]: 7.36 ± 2.14 cmH2O
- Effect on portal pressure compared with carvedilol [1]: not significantly different
- Change of portal pressure vs. Vehicle [1]: (−37.88%^#, P = 0.0125)
- Effect of antagonist on 5-HT induced contraction of isolated portal vein (isolated portal veins): abrogated
- Effect of antagonist on 8-OH-DPAT induced contraction of isolated portal vein (isolated portal veins): almost completely inhibited
- Effect of antagonist on F11440 induced contraction of isolated portal vein (isolated portal veins): almost completely inhibited
- Effect on portal pressure [2]: significantly decreased
- Portal pressure [2]: 13.27 ± 3.00 cmH2O
- Effect on portal pressure compared with carvedilol [2]: not significantly different
- Change of portal pressure vs. Vehicle [2]: (−37.04%^#, P = 0.0001)

SMILES: COc1ccccc1OCCNCC(O)COc1cccc2[nH]c3ccccc3c12 (stereo not shown) [Carvedilol]
- Portal pressure [1]: 7.99 ± 1.37 cmH2O
- Change of portal pressure vs. Vehicle [1]: (−32.58%^#, P = 0.0200)
- Portal pressure [2]: 14.01 ± 4.14 cmH2O
- Change of portal pressure vs. Vehicle [2]: (−33.54%^#, P = 0.0025)

SMILES: Cn1c(=O)cnn(CCCCN2CCN(c3ncccn3)CC2)c1=O [F11440]
- Effect of agonist on contractile tension of isolated portal vein (isolated portal veins): considerably increased the contractile force of iPVs in a concentration-dependent manner

SMILES: CCCN(CCC)C1CCc2cccc(O)c2C1 (stereo not shown) [8-OH-DPAT]
- Effect of agonist on contractile tension of isolated portal vein (isolated portal veins): considerably increased the contractile force of iPVs in a concentration-dependent manner
- Effect on portal pressure ([3]; 8-OH-DPAT 1 mg/kg i.p. once per day): increased; also recorded: significantly increase
- Portal pressure ([3]; 8-OH-DPAT 1 mg/kg i.p. once per day for one week, means ±SEM): 11.66 ± 1.89 cmH2O

SMILES: NCCc1c[nH]c2ccc(O)cc12 [5-HT, 5-hydroxytryptamine]
- Effect of agonist on contractile tension of isolated portal vein (isolated portal veins): concentration-dependent contraction

SMILES: CCN(CCCc1ccccc1)CCCc1ccccc1 [Alverine]
- Effect on portal pressure [1]: significantly decrease
- Portal pressure [1]: 6.94 ± 0.98 cmH2O
- Effect on portal pressure compared with carvedilol [1]: not significantly different
- Change of portal pressure vs. Vehicle [1]: (−41.44%*, P = 0.0065)
- Effect on portal pressure [2]: significantly decreased
- Portal pressure [2]: 12.98 ± 1.74 cmH2O
- Effect on portal pressure compared with carvedilol [2]: not significantly different
- Change of portal pressure vs. Vehicle [2]: (−38.39%^#, P < 0.0001)
